From patent US20220095618A1, “HERBICIDAL COMPOSITIONS” (SYNGENTA CROP PROTECTION AG, priority 2019, published 2022)

Assays:
Assay in all cases: Post-emergence efficacy of compounds of Formula (I) (B1), glasshouse
Type in all cases: in vivo
[1] = tested on: Chenopodium album (CHEAL); settings: Application Rate 500 g/Ha, evaluated after 13 days; for pest or weed control at 500 g/ha: Chenopodium album, post-emergence, 312 h, read-out: Control of CHEAL after post-emergence application (100=total damage to plant; 0=no damage to plant)
Experimental: (§1) Seeds of a variety of test species were sown in standard Iaom-based soil in pots:— Ipomoea hederacea (IPOHE), Euphorbia heterophylla (EPHHL), Chenopodium album (CHEAL), Amaranthus palmeri (AMAPA), Lolium perenne (LOLPE), Digitaria sanguinalis (DIGSA), Eleusine indica (ELEIN), Echinochloa crus-galli (ECHCG), Setaria faberi (SETFA). After cultivation for 14 days (post-emergence) under controlled conditions in a glasshouse (at 24/16° C., day/night; 14 hours light; 65% humidity), the plants were sprayed with an aqueous spray solution derived from the dissolution of the technical active ingredient Formula (I) in a small amount of acetone and a special solvent and emulsifier mixture referred to as IF50 (11.12% Emulsogen EL360 TM+44.44% N-methylpyrrolidone+44.44% Dowanol DPM glycol ether), to create a 50 g/I solution which was then diluted to required concentration using 0.25% or 1% Empicol ESC70 (Sodium lauryl ether sulphate)+1% ammonium sulphate as diluent. The delivery of the aqueous spray solution was via a laboratory track sprayer which delivered the aqueous spray composition at a rate of 200 litres per hectare, using a flat fan nozzle (Teejet 11002VS) and an application volume of 200 litre/ha (at 2 bar).
(§2) The test plants were then grown in a glasshouse under controlled conditions (at 24/16° C., day/night; 14 hours light; 65% humidity) and watered twice daily. After 13 days the test was evaluated (100=total damage to plant; 0=no damage to plant).

Setaria faberi (SETFA) = settings: Application Rate 500 g/Ha, evaluated after 13 days; for pest or weed control at 500 g/ha: Setaria faberi, post-emergence, 312 h, read-out: Control of SETFA after post-emergence application (100=total damage to plant; 0=no damage to plant)
Experimental: as §1, §2

[2] = tested on: Ipomoea hederacea (IPOHE); settings: Application Rate 500 g/Ha, evaluated after 13 days; for pest or weed control at 500 g/ha: Ipomoea hederacea, post-emergence, 312 h, read-out: Control of IPOHE after post-emergence application (100=total damage to plant; 0=no damage to plant)
Experimental: as §1, §2

[3] = tested on: Echinochloa crus-galli (ECHCG); settings: Application Rate 500 g/Ha, evaluated after 13 days; for pest or weed control at 500 g/ha: Echinochloa crus-galli, post-emergence, 312 h, read-out: Control of ECHCG after post-emergence application (100=total damage to plant; 0=no damage to plant)
Experimental: as §1, §2

[4] = tested on: Amaranthus palmeri (AMAPA); settings: Application Rate 500 g/Ha, evaluated after 13 days; for pest or weed control at 500 g/ha: Amaranthus palmeri, post-emergence, 312 h, read-out: Control of AMAPA after post-emergence application (100=total damage to plant; 0=no damage to plant)
Experimental: as §1, §2

Lolium perenne (LOLPE) = settings: Application Rate 500 g/Ha, evaluated after 13 days; for pest or weed control at 500 g/ha: Lolium perenne, post-emergence, 312 h, read-out: Control of LOLPE after post-emergence application (100=total damage to plant; 0=no damage to plant)
Experimental: as §1, §2

Eleusine indica (ELEIN) = settings: Application Rate 500 g/Ha, evaluated after 13 days; for pest or weed control at 500 g/ha: Eleusine indica, post-emergence, 312 h, read-out: Control of ELEIN after post-emergence application (100=total damage to plant; 0=no damage to plant)
Experimental: as §1, §2

[5] = tested on: Euphorbia heterophylla (EPHHL); settings: Application Rate 500 g/Ha, evaluated after 13 days; for pest or weed control at 500 g/ha: Euphorbia heterophylla, post-emergence, 312 h, read-out: Control of EPHHL after post-emergence application (100=total damage to plant; 0=no damage to plant)
Experimental: as §1, §2

[6] = tested on: Digitaria sanguinalis (DIGSA); settings: Application Rate 500 g/Ha, evaluated after 13 days; for pest or weed control at 500 g/ha: Digitaria sanguinalis, post-emergence, 312 h, read-out: Control of DIGSA after post-emergence application (100=total damage to plant; 0=no damage to plant)
Experimental: as §1, §2

Row | Compound | pest or weed control at 500 g/ha [1] [%] | pest or weed control at 500 g/ha (Setaria faberi (SETFA)) [%] | pest or weed control at 500 g/ha [2] [%] | pest or weed control at 500 g/ha [3] [%] | pest or weed control at 500 g/ha [4] [%] | pest or weed control at 500 g/ha (Lolium perenne (LOLPE)) [%] | pest or weed control at 500 g/ha (Eleusine indica (ELEIN)) [%] | pest or weed control at 500 g/ha [5] [%] | pest or weed control at 500 g/ha [6] [%] | Control of CHEAL after post-emergence application (100=total damage to plant; 0=no damage to plant) [1] | Control of SETFA after post-emergence application (100=total damage to plant; 0=no damage to plant) (Setaria faberi (SETFA)) | Control of IPOHE after post-emergence application (100=total damage to plant; 0=no damage to plant) [2] | Control of ECHCG after post-emergence application (100=total damage to plant; 0=no damage to plant) [3] | Control of AMAPA after post-emergence application (100=total damage to plant; 0=no damage to plant) [4] | Control of LOLPE after post-emergence application (100=total damage to plant; 0=no damage to plant) (Lolium perenne (LOLPE)) | Control of ELEIN after post-emergence application (100=total damage to plant; 0=no damage to plant) (Eleusine indica (ELEIN)) | Control of EPHHL after post-emergence application (100=total damage to plant; 0=no damage to plant) [5] | Control of DIGSA after post-emergence application (100=total damage to plant; 0=no damage to plant) [6]
1 | O=S(=O)([O-])CC[n+]1ccc(-c2ncccn2)cn1 [Compound 1.001, 2-(4-pyrimidin-2-ylpyridazin-1-ium-1-yl)ethanesulfonate] | 100 | 100 | 100 | 70 | 100 | 70 | 100 | 100 | 100 | – | – | – | – | – | – | – | – | –
2 | O=S(=O)([O-])CC[n+]1ccc(-c2cccnn2)cn1 [Compound 1.002, 2-(4-pyridazin-3-ylpyridazin-1-ium-1-yl)ethanesulfonate] | – | – | – | – | – | – | – | – | – | 100 | 90 | 40 | 100 | 100 | 100 | 100 | 100 | 100
3 | O=S(=O)([O-])CCC[n+]1ccc(-c2ncccn2)cn1 [Compound 1.003, 3-(4-pyrimidin-2-ylpyridazin-1-ium-1-yl)propane-1-sulfonate] | 100 | 100 | 60 | 80 | 100 | 60 | 100 | 100 | 100 | – | – | – | – | – | – | – | – | –
4 | O=S(=O)(O)CC[n+]1ccc(-c2cnccn2)cn1 [Compound 1.004] | 100 | 90 | 60 | 80 | 100 | 60 | 100 | 100 | 100 | – | – | – | – | – | – | – | – | –
5 | O=C(O)CC[n+]1ccc(-c2cnccn2)cn1.O=C([O-])C(F)(F)F [Compound 1.005, 3-(4-pyrazin-2-ylpyridazin-1-ium-1-yl)propanoic acid 2,2,2-trifluoroacetate] | 100 | – | 30 | 100 | 100 | – | 100 | – | 100 | – | 60 | – | – | – | 80 | – | 70 | –
6 | O=S(=O)([O-])CC[n+]1ccc(-c2ccnnc2)cn1 [Compound 1.006, 2-(4-pyridazin-4-ylpyridazin-1-ium-1-yl)ethanesulfonate] | 100 | 30 | 100 | 60 | 100 | 80 | 100 | 100 | 80 | – | – | – | – | – | – | – | – | –
7 | Nc1ccnc(-c2cc[n+](CCS(=O)(=O)O)nc2)n1 [Compound 1.008] | 100 | 100 | 40 | 100 | – | 60 | 100 | 80 | 100 | – | – | – | – | – | – | – | – | –
